Experimental data from PubChem BioAssay (NCI).
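These data come from cells grown in 96-well plates and exposed to compound for 48 hours at five concentrations. TGI: total growth inhibition.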

Key:
Assay in all cases: NCI anticancer screen, dose series, 48 h
[1] = system: SF-539 CNS
[2] = system: SF-268 CNS
[3] = system: TK-10 renal
[4] = system: SR leukemia
[5] = system: HL-60(TB) leukemia
[6] = system: MALME-3M melanoma
[7] = system: COLO 205 colon
[8] = system: T-47D breast
[9] = system: MDA-N
[10] = system: SNB-19 CNS
[11] = system: UACC-62 melanoma
[12] = system: CCRF-CEM leukemia
[13] = system: HCT-116 colon
[14] = system: UO-31 renal
[15] = system: OVCAR-4 ovarian
[16] = system: SK-MEL-28 melanoma
[17] = system: MDA-MB-435
[18] = system: NCI-H23 lung
[19] = system: LOX IMVI melanoma
[20] = system: SK-MEL-5 melanoma
[21] = system: PC-3 prostate
[22] = system: HCT-15 colon
[23] = system: RPMI-8226 leukemia
[24] = system: SNB-75 CNS
[25] = system: IGROV1 ovarian
[26] = system: U251 CNS
[27] = system: OVCAR-5 ovarian
[28] = system: MOLT-4 leukemia
[29] = system: BT-549 breast
[30] = system: RXF 393 renal
[31] = system: UACC-257 melanoma
[32] = system: K-562 leukemia
[33] = system: NCI-H226 lung
[34] = system: KM12 colon
[35] = system: HT29 colon
[36] = system: HOP-62 NSCLC
[37] = system: HS 578T breast
[38] = system: NCI/ADR-RES ovarian
[39] = system: DU-145 prostate
[40] = system: SW-620 colon
[41] = system: SF-295 CNS
[42] = system: MDA-MB-231 breast
[43] = system: OVCAR-3 ovarian
[44] = system: 786-0 renal
[45] = system: A549 NSCLC
[46] = system: HCC-2998 colon
[47] = system: SK-OV-3 ovarian
[48] = system: OVCAR-8 ovarian
[49] = system: M14 melanoma
[50] = system: A498 renal
[51] = system: NCI-H460 lung
[52] = system: MCF7 breast
[53] = system: SK-MEL-2 melanoma
[54] = system: EKVX NSCLC
[55] = system: NCI-H522 lung
[56] = system: SN12C renal
[57] = system: ACHN renal
[58] = system: CAKI-1 renal
[59] = system: HOP-92 NSCLC

CN(C)CCOc1ccc(I)cc1Cc1ccccc1
TGI [1]: 27.8 µM
TGI [2]: 27.4 µM
TGI [3]: 25.5 µM
TGI [4]: 7.81 µM
TGI [5]: 18.1 µM
TGI [6]: 29.9 µM
TGI [7]: 26.7 µM
TGI [8]: 16.2 µM
TGI [9]: 17.4 µM
TGI [10]: 28 µM
TGI [11]: 13.1 µM
TGI [12]: 18.5 µM
TGI [13]: 22.4 µM
TGI [14]: 20.4 µM
TGI [15]: 24.6 µM
TGI [16]: 16.6 µM
TGI [17]: 15.4 µM
TGI [18]: 12.6 µM
TGI [19]: 19.2 µM
TGI [20]: 14.2 µM
TGI [21]: 20.5 µM
TGI [22]: 25.1 µM
TGI [23]: 23.9 µM
TGI [24]: 6.79 µM
TGI [25]: 17.4 µM
TGI [26]: 27.1 µM
TGI [27]: 29.7 µM
TGI [28]: 20.2 µM
TGI [29]: 28.6 µM
TGI [30]: 32.5 µM
TGI [31]: 29.2 µM
TGI [32]: 11.2 µM
TGI [33]: 33.9 µM
TGI [34]: 27 µM
TGI [35]: 17 µM
TGI [36]: 28.6 µM
TGI [37]: 29.3 µM
TGI [38]: 29.8 µM
TGI [39]: 31.6 µM
TGI [40]: 32.4 µM
TGI [41]: 30.1 µM
TGI [42]: 12.3 µM
TGI [43]: 26.7 µM
TGI [44]: 23 µM
TGI [45]: 30.5 µM
TGI [46]: 9.62 µM
TGI [47]: 33 µM
TGI [48]: 30.6 µM
TGI [49]: 6 µM
TGI [50]: 27.1 µM
TGI [51]: 26.8 µM
TGI [52]: 27.5 µM
TGI [53]: 30.7 µM
TGI [54]: 28.8 µM
TGI [55]: 25 µM
TGI [56]: 25 µM
TGI [57]: 24.7 µM

COc1ccc(NC(=O)CC(=O)n2nc(C)c(N=Nc3ccc(C)c(C)c3)c2C)cc1
TGI [1]: > 100 µM
TGI [2]: > 100 µM
TGI [3]: > 100 µM
TGI [4]: > 100 µM
TGI [5]: > 100 µM
TGI [6]: > 100 µM
TGI [7]: > 100 µM
TGI [8]: > 100 µM
TGI [9]: > 100 µM
TGI [10]: > 100 µM
TGI [11]: > 100 µM
TGI [12]: > 100 µM
TGI [13]: > 100 µM
TGI [14]: 54.8 µM
TGI [15]: > 100 µM
TGI [58]: > 100 µM
TGI [16]: > 100 µM
TGI [17]: > 100 µM
TGI [18]: > 100 µM
TGI [19]: > 100 µM
TGI [20]: > 100 µM
TGI [21]: > 100 µM
TGI [23]: > 100 µM
TGI [24]: 87 µM
TGI [25]: > 100 µM
TGI [26]: > 100 µM
TGI [27]: > 100 µM
TGI [28]: > 100 µM
TGI [29]: > 100 µM
TGI [30]: > 100 µM
TGI [33]: > 100 µM
TGI [34]: > 100 µM
TGI [35]: > 100 µM
TGI [36]: > 100 µM
TGI [37]: 97.4 µM
TGI [38]: > 100 µM
TGI [39]: > 100 µM
TGI [40]: > 100 µM
TGI [41]: > 100 µM
TGI [42]: > 100 µM
TGI [43]: > 100 µM
TGI [44]: > 100 µM
TGI [45]: > 100 µM
TGI [59]: 65.9 µM
TGI [46]: > 100 µM
TGI [47]: 27.7 µM
TGI [48]: > 100 µM
TGI [49]: > 100 µM
TGI [50]: > 100 µM
TGI [51]: > 100 µM
TGI [52]: > 100 µM
TGI [53]: > 100 µM
TGI [54]: 52 µM
TGI [55]: > 100 µM
TGI [56]: > 100 µM
TGI [57]: > 100 µM
